Laboratory results taken from PMC12867150, “A fungi-derived cyclic peptide enhances Th9-mediated antitumor immunity by targeting ZAP70 and SREBP1” (The Journal of Clinical Investigation, 2025).
Several values for one entry are separate records, joined by “and”; a condition that tells them apart may be missing. Equal values may be shown once. Where a name gives a salt, the structure may show the parent alone.

Tests used:
[1] = tested on: CD69 on Th9 cells; test: Flow cytometry of CD69 on Th9 cells in vitro (Figure 5J, 7D); assay type: cell-based, mouse; set-up: CD69 expression in Th9 cells: unit not given here; conditions: for CD69 (flow cytometric quantification): Figure 5J, (n = 5); for CD69 (flow cytometric quantification) / CD69 expression in Th9 cells: individual replicates; for CD69 expression in Th9 cells: Figure 7D, one per column (n = 4)
Protocol: Naive CD4^+ T cells were isolated from the spleens of C57BL/6J or CD45.1^+ OT-II mice using the MojoSort Mouse CD4 Naive T Cell Isolation Kit (BioLegend, catalog 480040), following the manufacturer’s protocol. Purified cells were cultured in RPMI-1640 medium supplemented with 10% FBS, 1% penicillin-streptomycin, and 0.1% β-mercaptoethanol (Gibco, catalog 21985023).
(§1) T cell polarization was initiated under plate-bound anti-CD3 (2 μg/mL, clone 17A2, BioXCell, catalog BE0002) and soluble anti-CD28 (1 μg/mL, clone 37.51, BioXCell, catalog BE0015-1) stimulation, with the addition of cytokines and neutralizing antibodies specific to each subset. For Th9 cells, these included IL-4 (10 ng/mL, Peprotech, catalog 400-04), TGF-β (1 ng/mL, EPOTO Biotech, catalog HF-2021), anti–IL-12 (5 μg/mL, clone C17.8, BioXCell, catalog BE0051), and anti–IFN-γ (10 μg/mL, clone XMG1.2, BioXCell, catalog BE0055); for Th1 cells, these included IL-12 (10 ng/mL, GenScript, catalog Z03211-50) and anti–IL-4 (5 μg/mL, clone 11B11, BioXCell, catalog BE0045); for Th2 cells, these included IL-4 (50 ng/mL), anti–IFN-γ (20 μg /mL), anti–IL-12 (5 μg/mL), Th17 cells: IL-6 (20 ng/mL, EPOTO Biotech, catalog MF-1006), TGF-β (1 ng/mL), IL-1β (10 ng/mL, Peprotech, catalog AF-211-11B), anti–IFN-γ (10 μg/mL), anti–IL-12 (5 μg/mL), and anti–IL-4 (5 μg/mL); and for Tregs, these included TGF-β (3 ng/mL). After 3 days of initial culture, cells were either collected for downstream assays or continued in extended culture with refreshed cytokines to maintain lineage commitment.
Details regarding staining panels (human and mouse), reagents (including clones and catalog numbers), acquisition settings, compensation/controls, and analysis procedures are provided in Supplemental Methods.
BioLegend, Cat. No. 422301 or Mouse TruStain FcX™, BioLegend, Cat. No. 101319) for 10 minutes at 4°C. For surface marker detection, cells were stained with fluorochrome-conjugated monoclonal antibodies in 96-well V-bottom plates and incubated on ice for 30 minutes. After staining, cells were washed twice and resuspended in FACS buffer for analysis.
Prior to intracellular cytokine staining, cells were restimulated for 4 hours with PMA (Absin, Cat. No. abs9107), ionomycin (Sigma-Aldrich, Cat. No. I0634), and brefeldin A (MedChemExpress, Cat. No. HY-16592). For intracellular cytokine staining, cells were first surface-stained as described above, then fixed and permeabilized using the BD Cytofix/Cytoperm™ kit (BD Biosciences, Cat. No. 554714) according to the manufacturer ’s protocol. Intracellular proteins were stained with directly conjugated antibodies targeting IL-9, IL-17a, IL-4, IFN-γ, TNF-α, FOXP3, p-ZAP70, Perforin, and […]
Antibodies used for mouse samples included those against IL-9 (PE, clone RM9A4, Biolegend, Cat. No. 514104), IFN-γ (PE, clone XMG1.2, Biolegend, Cat. No.
Cat. No. 103138), CD4 (APC/Cy7, clone E-AB-F1353UJ, Elabscience, Cat. No.
AF18028), CD8α (PerCP/Cy5.5, clone E-AB-F1104UJ, Elabscience, Cat. No. […]
clone E-AB-F1187UH, Elabscience, Cat. No. AF19854), TNF-α (BV421, clone MP6-XT22, Biolegend, Cat. No. 506328), FOXP3 (PE, clone FJK-16s, eBioscience, Cat. No.
Perforin (APC, clone S16009A, Biolegend, Cat. No. 154303) and Granzyme B (APC, […]
clone QA16A02, Biolegend, Cat. No. 372203). […]

[2] = tested on: Th9 cells; test: IL-9+ Th9 cells with fatostatin (Figure 7A); assay type: cell-based, mouse; set-up: IL-9 expression in Th9 cells: unit not given here; conditions: for IL-9 expression in Th9 cells: Figure 7A, individual replicates, one per column (n = 4); for IL-9 production: fatostatin 5 μM, alone or with EpA 10 μM, result in words
Source text: (B) Quantitative PCR analysis of Il9 mRNA expression in cells treated as in A (n = 3). (C–F) Flow cytometric analysis of TNF-α production (C), CD69 expression (D), PD-1 expression (E), and mitochondrial membrane potential measured by MitoTracker staining (F) in Th9 cells treated with the indicated conditions (n = 4 for C–E; n = 3 for F). […] Cluster 2 includes genes related to calcium signaling, glycolysis, oxidative phosphorylation, and ERK signaling; cluster 6 includes genes associated with lipid biosynthesis. […] Statistical significance was determined using 1-way ANOVA followed by Tukey’s post hoc test (A–F and H–J). Data are presented as mean ± SEM (A–F and H–J). **P < 0.01, ***P < 0.001, ****P < 0.0001. […] It is left out because it is the vehicle control, not a substance.
as §1
[…] Dead cells were detected using Fixable Viability Dye eFluor 780 (eBioscience, catalog 65-0865).

Row | Compound | CD69 expression ([1]; EpA + fatostatin, result in words) | CD69 (flow cytometric quantification) ([1]; EpA + ERKin combination) | CD69 (flow cytometric quantification) ([1]; EpA + MEKin combination) | CD69 (flow cytometric quantification) ([1]; single agent) | CD69 expression in Th9 cells ([1]; EpA (10 µM) + Fatostatin (10 µM)) | CD69 expression in Th9 cells ([1]; single agent, 10 µM) | IL-9 expression in Th9 cells [2] | IL-9 expression in Th9 cells ([2]; single agent) | IL-9 production [2]
1 | anteiso-C15 Leu7 surfactin [EpA] | elevated in the combination group | 27.9 and 23.5 and 24 and 26.9 and 24.1 | 20.8 and 22.9 and 21.2 and 18.2 and 18.1 | 59.4 and 133 and 54.7 and 74.6 and 155 | 54.9 and 46.3 and 45.8 and 49.3 | 41.4 and 40.9 (2×) and 41.7 | 74.4 and 75.9 and 77.3 and 78.9 | 46.6 and 46.1 and 47.5 and 45.4 | further enhanced when combined with EpA
2 | CCCc1cc(-c2nc(-c3ccc(C)cc3)cs2)ccn1 [fatostatin, fatostatin hydrobromide, reference compound] |  |  |  |  |  | 39.9 and 41.1 and 41.2 and 39.2 |  | 25.4 and 26.8 and 28.6 and 27.5 | significantly upregulated IL-9 production
